Results published in article PMC8903829 (eLife, 2022).
Values joined by “and” are separate entries in the source; they are usually repeats but may differ in a detail not shown here. Equal entries are not always repeated. Where two headings read alike, the source gives them in different places.

Assays:
[1] = Bioanalytical assessment of plasma and brain concentrations after mouse DC-MES assay; assay type: in vivo; conditions: WT mice; for concentration at 2 h: mouse, po
Method: Approximately 0.5 mL of blood was collected from each mouse at the end of the assay via cardiac puncture under deep anesthesia. The blood samples were collected in a syringe and transferred to tubes containing EDTA. Blood was stored at 4 °C until centrifuged within 30 min of collection. Plasma was harvested and placed on dry ice and stored in a freezer set to maintain a temperature of –70°C to –80°C until analysis. Brains were harvested immediately after blood collection and placed on dry ice prior to storage in a freezer set to maintain a temperature of –70°C to –80°C until analysis.
Extraction of plasma samples was carried out by protein precipitation using acetonitrile. Plasma samples (50 µL) were mixed with 50 µL of internal standard (IS) solution in water followed by addition of 10 µL of concentrated ortho-phosphoric acid and 200 µL of acetonitrile. Samples were vortexed for 30 seconds, centrifuged at 13,000 rpm for 20 min, decanted in to a 96-well plate, and further centrifuged at 4000 rpm for 20 min. The samples were analyzed by UHPLC-ESI-MS/MS as described below.
Prior to extraction, pre-weighed whole brains were homogenized in 1:1 acetonitrile/water (v/v) (4 mL per mouse brain) using an IKA T18 ULTRA-TURRAX Homogenizer at the setting of 4 for approximately 2 min. The homogenate was centrifuged at 13,000 rpm for 20 min and 50 µL of the supernatant were treated exactly as described above for plasma samples. […]
Samples were analyzed by UHPLC-ESI MS/MS using a TQ-5500 Sciex triple quadrupole mass spectrometer equipped with a Shimadzu Nexera UHPLC pump and auto-sampler system using an ACE C18 PFP, 2.50 × 50 mm, 1.7 µm particle size column and gradient elution consisting of solvent A (0.1% formic acid in water) and solvent B (0.1% formic acid in acetonitrile) starting at 20% B from 0 min to 0.4 min and then increased to 100% B from 0.4 min to 0.6 min. At 2.0 min, the mobile phase composition was switched back to […] for 1 min. The flow rate used throughout the experiment was […]. […] The UHPLC-ESI MS/MS system was controlled by Analyst 1.6.
Sample concentrations were determined using a linear calibration function, weighted 1 /X, generated by the regression of analyte to IS peak area ratios in the standard samples to their respective concentrations. Acceptance criteria for the analytical run required that the back calculated values of the standards and the QC samples fell within ±20% of their nominal values, except for the lowest standard or lower limit of quantitation (LLOQ), for which the acceptance criterion was ±25%. At least 6 out of 12 standard points had to show back-calculated values within ±20% of their nominal concentrations for the calibration to be accepted. At least three QC samples, one at each level, had to show back-calculated values within ±20% of their nominal concentrations for the whole sample batch to be valid.

[2] = Bioanalytical assessment of plasma and brain concentrations after rat DC-MES assay; assay type: in vivo; conditions: sheet Figure 5G, 5H, 5I (rats); for concentration at 2 h: rat, po
[3] = target: T1, hNaV1.6(N1768D) resurgent currents (Homo sapiens, UniProt Q9UQD0, N1768D); assay: Resurgent current inhibition; assay type: cell-based
T1 construct: expression vector containing the full-length cDNA coding for specific human and mouse sodium channel α-subunit; expressed in transfected cells

[4] = parameters: method as in Beatch et al., 2020; conditions: humans; ref Beatch et al., 2020; cited from earlier work
[5] = test system: wild-type Sprague Dawley rats; assay: DC-Maximal electroshock seizure assay (DC-MES); assay type: in vivo, rat; conditions: for WT rat DC-MES, fraction of animals seizing: sheet Figure 5G, 5H, 5I (rats)
Method: Phenytoin was formulated in physiologic saline and was administered intraperitoneally (i.p.) using a 25-gauge needle at a dose volume of 10 mL/kg. All compounds were administered 2 hr prior to electrical seizure induction for all seizure models employed in this study.
The maximal electroshock seizure (MES) assay has been extensively used in the search for anticonvulsant substances ([Löscher et al., 1991]; [Piredda et al., 1985]; [White et al., 1995]). The MES assay is sensitive to nonselective NaV inhibitors. It is considered a model for generalized tonic-clonic (GTC) seizures and provides an assessment of seizure spread. Briefly, an electroshock of direct current (DC) was delivered by corneal electrodes (Electro Convulsive Therapy Unit 57,800 from Ugo Basile). The parameters of stimulation were different between mice and rats. In CF1 mice aged 9–12 weeks, a direct current of 50 mA (60 Hz) was delivered for 0.2 s (pulse width of 0.5ms), whereas in Sprague Dawley (SD) rats aged 5–6 weeks, a direct current of 150 mA (60 Hz) was delivered for 0.3 s (pulse width of 0.5ms). Immediately prior to the electroshock, the animals’ eyes were anesthetized with a drop of Alcaine (0.5% proparacaine hydrochloride).
An animal was considered protected in the assay in the absence of a GTC with hindlimb extension and is then scored ‘0’. An animal displaying GTC with hindlimb extension was considered not protected and is then scored ‘1’. The experimenter scoring the seizure behavior was blinded to the treatment.

Sprague Dawley rats = assay: Observation of potential adverse behavior (behavioral signs) in the rat DC-MES studies; assay type: in vivo; conditions: rat
Method: Animals were observed by the scientist(s) responsible for dosing for the first 30 min after dosing for and again at the time of assay (2 hr post dose) for signs of abnormal behavior.

[6] = 3 mg/kg PO every 12 hr, day 7, 2 h after 13th dose, 3 mg/kg
[7] = 5 mg/kg PO every 12 hr, day 7, 2 h after 13th dose, 5 mg/kg
[8] = 10 mg/kg PO single dose, 2 h, 10 mg/kg
[9] = 1 mg/kg PO single dose, 2 hr, 1 mg/kg

T1 sequence (Q9UQD0 whole entry N1768D): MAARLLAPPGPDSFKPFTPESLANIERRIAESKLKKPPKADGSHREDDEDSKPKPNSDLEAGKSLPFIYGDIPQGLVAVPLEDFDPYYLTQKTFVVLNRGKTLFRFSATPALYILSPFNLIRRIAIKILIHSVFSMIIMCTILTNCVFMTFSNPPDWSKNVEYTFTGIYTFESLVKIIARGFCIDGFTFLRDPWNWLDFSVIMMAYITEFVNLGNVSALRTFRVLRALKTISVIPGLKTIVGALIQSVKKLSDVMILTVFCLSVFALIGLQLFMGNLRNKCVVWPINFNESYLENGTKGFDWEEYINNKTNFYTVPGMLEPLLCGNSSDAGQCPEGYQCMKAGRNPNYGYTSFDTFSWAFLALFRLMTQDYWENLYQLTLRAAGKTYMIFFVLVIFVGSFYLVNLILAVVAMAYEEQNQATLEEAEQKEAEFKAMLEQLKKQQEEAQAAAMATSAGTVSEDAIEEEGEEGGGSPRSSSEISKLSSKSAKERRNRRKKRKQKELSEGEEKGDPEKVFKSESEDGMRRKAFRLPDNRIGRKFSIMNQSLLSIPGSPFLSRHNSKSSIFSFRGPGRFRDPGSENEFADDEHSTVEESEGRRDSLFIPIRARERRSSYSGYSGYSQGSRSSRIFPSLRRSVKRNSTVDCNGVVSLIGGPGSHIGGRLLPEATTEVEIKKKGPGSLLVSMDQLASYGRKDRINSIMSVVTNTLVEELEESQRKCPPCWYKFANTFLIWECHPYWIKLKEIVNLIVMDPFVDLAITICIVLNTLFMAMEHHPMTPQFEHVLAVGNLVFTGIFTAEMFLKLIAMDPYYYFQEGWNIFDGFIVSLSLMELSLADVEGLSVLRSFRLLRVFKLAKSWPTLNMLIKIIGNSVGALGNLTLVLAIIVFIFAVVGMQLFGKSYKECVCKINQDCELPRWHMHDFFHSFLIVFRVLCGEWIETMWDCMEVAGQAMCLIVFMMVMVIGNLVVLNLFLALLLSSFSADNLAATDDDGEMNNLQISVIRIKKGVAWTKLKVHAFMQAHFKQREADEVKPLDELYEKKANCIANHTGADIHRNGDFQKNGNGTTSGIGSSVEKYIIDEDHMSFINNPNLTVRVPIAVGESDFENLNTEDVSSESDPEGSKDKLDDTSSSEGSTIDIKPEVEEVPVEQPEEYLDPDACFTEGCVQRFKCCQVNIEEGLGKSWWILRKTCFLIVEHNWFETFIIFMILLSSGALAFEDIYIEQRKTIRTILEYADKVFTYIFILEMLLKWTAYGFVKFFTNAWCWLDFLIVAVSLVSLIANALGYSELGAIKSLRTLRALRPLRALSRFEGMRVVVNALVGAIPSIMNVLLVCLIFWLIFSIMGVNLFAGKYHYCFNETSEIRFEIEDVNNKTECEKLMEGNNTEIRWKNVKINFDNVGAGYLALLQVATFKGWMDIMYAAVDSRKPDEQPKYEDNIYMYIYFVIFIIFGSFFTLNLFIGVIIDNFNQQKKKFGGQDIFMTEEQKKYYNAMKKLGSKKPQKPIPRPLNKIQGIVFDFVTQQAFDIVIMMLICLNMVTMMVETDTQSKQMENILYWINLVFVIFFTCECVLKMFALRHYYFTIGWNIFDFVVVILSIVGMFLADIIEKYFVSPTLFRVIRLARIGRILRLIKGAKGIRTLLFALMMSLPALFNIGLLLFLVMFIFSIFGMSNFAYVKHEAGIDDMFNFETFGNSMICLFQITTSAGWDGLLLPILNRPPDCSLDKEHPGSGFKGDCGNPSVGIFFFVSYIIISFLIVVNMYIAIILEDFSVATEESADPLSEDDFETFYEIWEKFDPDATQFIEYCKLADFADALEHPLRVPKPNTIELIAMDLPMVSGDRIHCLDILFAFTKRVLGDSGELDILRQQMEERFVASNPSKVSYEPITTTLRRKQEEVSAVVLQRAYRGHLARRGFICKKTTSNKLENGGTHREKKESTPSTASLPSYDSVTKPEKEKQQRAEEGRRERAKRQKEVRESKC
T1 sequence (Q92913 1-192 isoform Q92913-2 partner): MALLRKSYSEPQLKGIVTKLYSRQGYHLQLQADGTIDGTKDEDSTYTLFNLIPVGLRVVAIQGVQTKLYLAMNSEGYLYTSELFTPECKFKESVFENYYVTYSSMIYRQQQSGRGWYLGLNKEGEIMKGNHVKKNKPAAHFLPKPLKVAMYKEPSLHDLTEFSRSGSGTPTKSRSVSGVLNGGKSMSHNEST

With `Cc1cc(S(=O)(=O)Nc2cscn2)c(F)cc1N(C)[C@H]1CCN(Cc2ccccc2)C1` [NBI-921352] the “Mean [Brain]” value [1, 6] was 0.01911 µM, the “Mean [Plasma]” value [1, 6] was 0.01423 µM and the “Mean [Plasma]” value ([1]; 3 mg/kg PO single dose, 2 h, 3 mg/kg) was 0.01728 µM and 0.009122 µM. The “Mean [Brain]” value [1, 7] was 0.02064 µM, the “Mean [Plasma]” value [1, 7] was 0.03091 µM and the “Mean [Plasma]” value ([1]; 5 mg/kg PO single dose, 2 h, 5 mg/kg) was 0.0212 µM. For the same compound, the “Mean [Brain]” value [1, 8] was 0.05777 µM and 0.08031 µM, the “Mean [Plasma]” value [1, 8] was 0.1016 µM and 0.1012 µM and the concentration at 2 h ([1]; brain, 3 mg/kg, 3 mg/kg PO every 12 hr, day 7, 2 h after 13th dose, read-out: Mean [Brain]) was 12.8 nM. For the same compound, the concentration at 2 h ([1]; brain, 5 mg/kg, 5 mg/kg PO every 12 hr, day 7, 2 h after 13th dose, read-out: Mean [Brain]) was 37.7 nM, the concentration at 2 h ([1]; brain, 10 mg/kg, 10 mg/kg PO every 12 hr, day 7, 2 h after 13th dose, read-out: Mean [Brain]) was 37.7 nM and the concentration at 2 h ([1]; brain, 10 mg/kg, 10 mg/kg PO single dose, 2 h, read-out: Mean [Brain]) was 51.9 nM. It also gave a concentration at 2 h ([1]; brain, 100 mg/kg, 100 mg/kg PO single dose, 2 h, read-out: Mean [Brain]) of 646 nM, a concentration at 2 h ([1]; brain, 200 mg/kg, 200 mg/kg PO single dose, 2 h, read-out: Mean [Brain]) of 3880 nM and a concentration at 2 h ([1]; plasma, 3 mg/kg, 3 mg/kg PO every 12 hr, day 7, 2 h after 13th dose, read-out: Mean [Plasma]) of 17.7 nM. For the same compound, the concentration at 2 h ([1]; plasma, 3 mg/kg, 3 mg/kg PO single dose, 2 h, read-out: Mean [Plasma]) was 11.2 nM, the concentration at 2 h ([1]; plasma, 5 mg/kg, 5 mg/kg PO every 12 hr, day 7, 2 h after 13th dose, read-out: Mean [Plasma]) was 43 nM and the concentration at 2 h ([1]; plasma, 5 mg/kg, 5 mg/kg PO single dose, 2 h, read-out: Mean [Plasma]) was 36.8 nM. For the same compound, the concentration at 2 h ([1]; plasma, 10 mg/kg, 10 mg/kg PO every 12 hr, day 7, 2 h after 13th dose, read-out: Mean [Plasma]) was 151 nM, the concentration at 2 h ([1]; plasma, 10 mg/kg, 10 mg/kg PO single dose, 2 h, read-out: Mean [Plasma]) was 94.2 nM and the concentration at 2 h ([1]; plasma, 100 mg/kg, 100 mg/kg PO single dose, 2 h, read-out: Mean [Plasma]) was 3330 nM. For the same compound, the concentration at 2 h ([1]; plasma, 200 mg/kg, 200 mg/kg PO single dose, 2 h, read-out: Mean [Plasma]) was 34700 nM, the concentration at 2 h ([2]; brain, 1 mg/kg, 1 mg/kg PO every 12 hr, day 7, 2 hr after 13th dose, read-out: Mean [Brain]) was 12.5 nM and the concentration at 2 h ([2]; brain, 1 mg/kg, 1 mg/kg PO single dose, 2 hr, read-out: Mean [Brain]) was 16.6 nM. For the same compound, the concentration at 2 h ([2]; brain, 3 mg/kg, 3 mg/kg PO every 12 hr, day 7, 2 hr after 13th dose, read-out: Mean [Brain]) was 39.6 nM, the concentration at 2 h ([2]; brain, 10 mg/kg, 10 mg/kg PO single dose, 2 hr, read-out: Mean [Brain]) was 161 nM and the concentration at 2 h ([2]; brain, 30 mg/kg, 30 mg/kg PO single dose, 2 hr, read-out: Mean [Brain]) was 213 nM. For the same compound, the concentration at 2 h ([2]; plasma, 1 mg/kg, 1 mg/kg PO every 12 hr, day 7, 2 hr after 13th dose, read-out: Mean [Plasma]) was 33.9 nM, the concentration at 2 h ([2]; plasma, 3 mg/kg, 3 mg/kg PO every 12 hr, day 7, 2 hr after 13th dose, read-out: Mean [Plasma]) was 123 nM and the concentration at 2 h ([2]; plasma, 10 mg/kg, 10 mg/kg PO single dose, 2 hr, read-out: Mean [Plasma]) was 1150 nM. For the same compound, the concentration at 2 h ([2]; plasma, 30 mg/kg, 30 mg/kg PO single dose, 2 hr, read-out: Mean [Plasma]) was 2330 nM, the “Mean [Brain]” value [2, 9] was 0.02047 µM and 0.01429 µM and 0.01541 µM and the “N1768D current in (352)/(Vehicle), Resurgent, mean” value (shortened to “N1768D current in (352)/(Vehicle)”) ([3]; -5 Log M) was 0.94. The “N1768D current in (352)/(Vehicle)” value ([3]; -5.47716 Log M) was 0.88, the “N1768D current in (352)/(Vehicle)” value ([3]; -5.95429 Log M) was 0.86 and the “N1768D current in (352)/(Vehicle)” value ([3]; -6.91009 Log M) was 0.8. The “N1768D current in (352)/(Vehicle)” value ([3]; -7.38722 Log M) was 0.57, the “N1768D current in (352)/(Vehicle)” value ([3]; -7.85387 Log M) was 0.18 and the IC50 ([3]; NaVβ4 peptide 200 μM intracellular, read-out: apparent IC50 resurgent currents from N1768D channels) was 37 nM. The half-life of elimination [4] was “approximately 8.5 hr”, the EC50 ([5]; WT rat DC-MES (oral; phenytoin i.p.), read-out: plasma EC50) was 150 nM and the EC50 ([5]; WT rat DC-MES, 2 hr post dose (oral; phenytoin i.p.), read-out: brain EC50) was 37 nM. The ED50 ([5]; WT rat DC-MES, oral, 2 hr, read-out: ED50, prevention of GTC with hindlimb extension) was 3.7 mg/kg, the “WT rat DC-MES, fraction of animals seizing” value (shortened to “WT rat DC-MES, fraction”) ([5]; 1 mg/kg PO every 12 hr, day 7, 2 hr after 13th dose) was 0.4286 and the “WT rat DC-MES, fraction” value [5, 9] was 0.75 and 1. The “WT rat DC-MES, fraction” value ([5]; 3 mg/kg PO every 12 hr, day 7, 2 hr after 13th dose) was 0.25, the “WT rat DC-MES, fraction” value ([5]; 3 mg/kg PO single dose, 2 hr, 3 mg/kg) was 0.6 and 0.5714 and 0.4 and the “WT rat DC-MES, fraction” value ([5]; 10 mg/kg PO single dose, 2 hr) was 0.1429. For the same compound, the “WT rat DC-MES, fraction” value ([5]; 30 mg/kg PO single dose, 2 hr) was 0 and the “minimal plasma concentration provoking behavioral signs (BSC)” value (Sprague Dawley rats) was 71 µM.
